This is an account of results in US9493438B2, “4,4-difluoro-piperidine-compounds” (ROTTAPHARM BIOTECH S.R.L., priority 2012, dated 2016).

The target of test [1] is T1, human OX2 receptors (Homo sapiens, UniProt O43614).
T1 construct: expressed in transfected cells; host or cells: HEK-293 cells
T1 sequence (O43614 1-444): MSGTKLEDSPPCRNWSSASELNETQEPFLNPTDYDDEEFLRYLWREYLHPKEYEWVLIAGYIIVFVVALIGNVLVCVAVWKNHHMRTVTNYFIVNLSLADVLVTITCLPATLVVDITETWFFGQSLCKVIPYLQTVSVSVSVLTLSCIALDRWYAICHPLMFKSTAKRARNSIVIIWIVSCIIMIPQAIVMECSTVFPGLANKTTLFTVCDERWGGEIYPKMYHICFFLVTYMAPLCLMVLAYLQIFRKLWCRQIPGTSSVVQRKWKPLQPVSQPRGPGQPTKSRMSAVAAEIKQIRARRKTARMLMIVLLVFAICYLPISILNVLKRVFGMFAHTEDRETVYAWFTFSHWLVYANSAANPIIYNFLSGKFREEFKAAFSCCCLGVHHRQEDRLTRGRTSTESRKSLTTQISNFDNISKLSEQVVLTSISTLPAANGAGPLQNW
The test can be described thus: antagonistic activity against human OX2 receptor, [Ca2+]i fluorimetry in transfected HEK-293 cells. The class given is cell-based. The following applies: read-out: PKb OX2 (converted). On the procedure: (§1) Thus the plate was loaded with the calcium dye (Fluo-4NW/probenecid in HBSS, Hepes 20 mM, pH 7.4; Invitrogen) at 37° C. for 60 min. Afterward the temperature was equilibrated at 22° C. for 15 min and the [Ca2+]i measured directly on the plate by using a fluorescent plate reader (CeliLux Perkin Elmer).
(§2) Invention compounds were dissolved in DMSO, diluted in HBSS (DMSO, 0.3% final) and added to the wells. After 5 min CHO cells were activated with orexin-A, 3 nM while HEK-293 cells were activated with orexin-B, 10 nM. […] The antagonistic activity has been expressed as pKb (co-logarithm of the apparent dissociation constant calculated by using the modified Cheng Prusoff equation). The results are expressed as percent of control specific […] response ((measured specific response/control specific agonist response)×100) obtained in the presence of the test compounds.
(§3) The IC50 values (concentration causing a half-maximal inhibition of the control specific agonist response) were determinated by non-linear regression analysis of the concentration curves generated with mean replicate values using hill equation curve fitting. The IC50 values are obtained by the arithmetical mean of at least two experiments.

In test [2] the target is T2, human OX1 receptors (Homo sapiens, UniProt O43613).
T2 construct: expressed in transfected cells; host or cells: CHO cells
T2 sequence (O43613 1-425): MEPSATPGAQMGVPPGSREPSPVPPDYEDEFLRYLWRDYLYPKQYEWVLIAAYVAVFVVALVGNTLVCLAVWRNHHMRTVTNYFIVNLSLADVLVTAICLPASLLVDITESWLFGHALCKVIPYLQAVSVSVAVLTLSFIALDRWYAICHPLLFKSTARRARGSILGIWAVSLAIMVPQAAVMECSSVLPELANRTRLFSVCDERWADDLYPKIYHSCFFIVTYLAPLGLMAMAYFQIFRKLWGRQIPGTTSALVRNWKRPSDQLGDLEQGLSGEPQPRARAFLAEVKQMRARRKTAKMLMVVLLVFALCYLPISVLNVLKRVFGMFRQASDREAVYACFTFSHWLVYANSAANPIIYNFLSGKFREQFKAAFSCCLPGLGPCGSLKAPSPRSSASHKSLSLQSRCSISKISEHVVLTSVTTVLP
Briefly: antagonistic activity against human OX1 receptor, [Ca2+]i fluorimetry in transfected CHO cells. The class given is cell-based. The following applies: CHO cells transfected with human recombinant OX1; activated with orexin-A 3 nM; pKb = co-logarithm of apparent dissociation constant (modified Cheng Prusoff). On the procedure: as §1, §2, §3

For the compound `COc1ccc(OC)c(C(=O)N2CCC(F)(F)CC2CNc2ccc(Cl)cn2)c1` (racemic) [Compound 11, (RS)(2-(((5-chloropyridin-2-yl)amino)methyl)-4,4-difluoropiperidin-1-yl)(2,5-dimethoxyphenyl)methanone], the figures for the Kb in test [1] and in test [2] were 10 µM and 0.00794 µM, respectively. On to `CN(C)c1ccc(-c2ccccc2)c(C(=O)N2CCC(F)(F)CC2CNc2ccc(Cl)cn2)c1` (racemic) [Compound 18, (RS)(2-(((5-chloropyridin-2-yl)amino)methyl)-4,4-difluoropiperidin-1-yl)(4-(dimethylamino)-[1,1′-biphenyl]-2-yl)methanone], for which the Kb in test [1] was 1 µM; in test [2] it was 0.0316 µM. The matching figures for `O=C(c1cccc2cccnc12)N1CCC(F)(F)CC1CNc1ccc(Cl)cn1` (racemic) [Compound 25, (RS)(2-(((5-chloropyridin-2-yl)amino)methyl)-4,4-difluoropiperidin-1-yl)(quinolin-8-yl)methanone]: 10 µM and 0.000794 µM. With `N#Cc1ccc(-c2ncccn2)c(C(=O)N2CCC(F)(F)CC2CNc2ccc(Cl)cn2)c1` (racemic) [Compound 27, (RS)3-(2-(((5-chloropyridin-2-yl)amino)methyl)-4,4-difluoropiperidin-1-carbonyl)-4-(pyrimidin-2-yl)benzonitrile], the Kb in test [1] is 10 µM; in test [2], 0.00158 µM.

`Cc1ccc(-c2ncccn2)c(C(=O)N2CCC(F)(F)CC2CNc2ncc(C(F)(F)F)cc2F)n1` (racemic) [Compound 31, (RS)(4,4-difluoro-2-(((3-fluoro-5-(trifluoromethyl)pyridin-2-yl)amino)methyl)piperidin-1-yl)(6-methyl-3-(pyrimidin-2-yl)pyridin-2-yl)methanone]: the Kb is 10 µM in test [1] and 0.00398 µM in test [2]. The matching figures for `Cc1ccc(-c2ccccc2)c(C(=O)N2CCC(F)(F)CC2CNc2ccc(C(F)(F)F)cn2)n1` (racemic) [Compound 36, (RS)(4,4-difluoro-2-(((5-(trifluoromethyl)pyridin-2-yl)amino)methyl)piperidin-1-yl)(6-methyl-3-phenylpyridin-2-yl)methanone]: 10 µM and 0.00316 µM. The matching figures for `O=C(c1nc(C(F)(F)F)ccc1-c1ncccn1)N1CCC(F)(F)CC1CNc1ccc(C(F)(F)F)cn1` (racemic) [Compound 39, (RS)(4,4-difluoro-2-(((5-(trifluoromethyl)pyridin-2-yl)amino)methyl)piperidin-1-yl)(3-(pyrimidin-2-yl)-6-(trifluoromethyl)pyridin-2-yl)methanone]: 10 µM and 0.0316 µM.

For `Cc1ccc(-c2ccccc2)c(C(=O)N2CCC(F)(F)CC2CNc2cnc(C(F)(F)F)cn2)n1` (racemic) [Compound 43], the Kb is 10 µM in test [1] and 0.00316 µM in test [2]. In the same order, the values of `Cc1ccc(-c2ccccc2)c(C(=O)N2CCC(F)(F)CC2CNc2ncc(C(F)(F)F)cc2F)n1` (racemic) [Compound 44, (RS)(4,4-difluoro-2-(((3-fluoro-5-(trifluoromethyl)pyridin-2-yl)amino)methyl)piperidin-1-yl)(6-methyl-3-phenylpyridin-2-yl)methanone] are 0.2 µM and 0.00398 µM. As for `Cc1ccc(OCC2CC2)c(C(=O)N2CCC(F)(F)CC2CNc2ccc(C(F)(F)F)cn2)n1` (racemic) [Compound 45, (RS)(3-(cyclopropylmethoxy)-6-methylpyridin-2-yl)(4,4-difluoro-2-(((5-(trifluoromethyl)pyridin-2-yl)amino)methyl)piperidin-1-yl)methanone], the Kb in test [1] was 10 µM; in test [2], 0.00398 µM. In the same order, the values of `Cc1ccc(OCc2ccccc2)c(C(=O)N2CCC(F)(F)CC2CNc2ccc(C(F)(F)F)cn2)n1` (racemic) [Compound 47, (RS)(3-(benzyloxy)-6-methylpyridin-2-yl)(4,4-difluoro-2-(((5-(trifluoromethyl)pyridin-2-yl)amino)methyl)piperidin-1-yl)methanone] are 10 µM and 0.0126 µM. In the same order, the values of `O=C(c1ncccc1-c1ccccc1)N1CCC(F)(F)CC1CNc1ccc(C(F)(F)F)cn1` (racemic) [Compound 51, (RS)(4,4-difluoro-2-((5-(trifluoromethylpyridin-2-yl)amino)methyl)piperidin-1-yl)(3-phenylpyridin-2-yl)methanone] are 10 µM and 0.00631 µM. In the same order, the values of `Cc1ccc(-c2ccccn2)c(C(=O)N2CCC(F)(F)CC2CNc2ccc(C(F)(F)F)cn2)n1` (racemic) [Compound 53, (RS)(4,4-difluoro-2-(((5-(trifluoromethyl)pyridin-2-yl)amino)methyl)piperidin-1-yl)(6′-methyl-[2,3′-bipyridin]-2′-yl)methanone] are 10 µM and 0.0158 µM.

Regarding `Cc1ccc(-n2nccn2)c(C(=O)N2CCC(F)(F)CC2CNc2nc(C)cc(C)n2)c1` (single isomer, unassigned; isomer a) [Compound 4, (2-(((4,6-dimethylpyrimidin-2-yl)amino)methyl)-4,4-difluoropiperidin-1-yl)(5-methyl-2-(2H-1,2,3-triazol-2-yl)phenyl)methanone (isomer A)], the Kb was 0.2 µM in test [1] and 0.00251 µM in test [2]. The matching figures for `Cc1ccc(-c2ncccn2)c(C(=O)N2CCC(F)(F)CC2CNc2ccc(Cl)cn2)n1` (single isomer, unassigned; isomer a) [Compound 16, (2-(((5-chloropyridin-2-yl)amino)methyl)-4,4-difluoropiperidin-1-yl)(6-methyl-3-(pyrimidin-2-yl)pyridin-2-yl)methanone (isomer A)]: 10 µM and 0.000631 µM. In the same order, the values of `Cc1ccc(-c2ncccn2)c(C(=O)N2CCC(F)(F)CC2CNc2ccc(C(F)(F)F)cn2)n1` (single isomer, unassigned; isomer a) [Compound 20, (4,4-difluoro-2-(((5-(trifluoromethyl)pyridin-2-yl)amino)methyl)piperidin-1-yl)(6-methyl-3-(pyrimidin-2-yl)pyridin-2-yl)methanone (isomer A)] are 0.316 µM and 0.000794 µM.

Take `Cc1ccc(-n2nccn2)c(C(=O)N2CCC(F)(F)CC2CNc2ccc(Cl)cn2)n1` (single isomer, unassigned; isomer b) [Compound 9, (2-(((5-chloropyridin-2-yl)amino)methyl)-4,4-difluoropiperidin-1-yl)(6-methyl-3-(2H-1,2,3-triazol-2-yl)pyridin-2-yl)methanone (isomer B)]: the Kb in test [2] is 0.0158 µM. Same read-out and setting: with `Cc1ccc(-c2ncccn2)c(C(=O)N2CCC(F)(F)CC2CNc2ccc(Cl)cn2)n1` (single isomer, unassigned; isomer b) [Compound 17, (2-(((5-chloropyridin-2-yl)amino)methyl)-4,4-difluoropiperidin-1-yl)(6-methyl-3-(pyrimidin-2-yl)pyridin-2-yl)methanone (isomer B)] the figure was 0.1 µM. For “(RS)(4,4-difluoro-2-(((5-(trifluoromethyl)pyridin-2-yl)amino)methyl)piperidin-1-yl)(6-methyl-3-(pyrimidin-2-yl)pyridin-2-yl)methanone [Compound 42]”, the “PKb OX1” value in test [2] stood at 8.2.
